From PMC6528491 (Frontiers in Pharmacology, 2019)
Values after ≈ are worked out from the molar mass of the structure shown. Read-outs that look alike come from different tables or passages of the source.

Assays:
Caco2 cell system = conditions: Caco-2; cited from earlier work
[1] = parameters: method as in 2 sources, ref Wu et al., 2005 ||| ref Li et al., 2014; conditions: cited from earlier work
CYP3A4 = conditions: cited from earlier work
[2] = parameters: method as in 2 sources, one per row (each row's own in cited_ref): ref Albengres and Tillement, 1992; Keogh et al., 1995 ||| ref Atiq et al., 2016; conditions: ref Albengres and Tillement, 1992; Keogh et al., 1995; cited from earlier work
[3] = Population pharmacokinetic analysis of CsA (NONMEM, two-compartment model with transit compartments); type: in vivo, healthy Chinese volunteers; conditions: 95% CIs from 1,000 bootstrap samples included 1.0 and were inside 0.8–1.25
[4] = intravenous high BG doses (0.23–0.90g/kg) to rats; ref Xin et al., 2013; cited from earlier work
[5] = cited from earlier work
From the text: After oral administration, BG is rapidly hydrolyzed to baicalein ...

[6] = Clinical drug-drug interaction study, non-compartmental pharmacokinetics of CsA in blood; type: in vivo, healthy Chinese volunteers; conditions: single 500 mg BG dose with 200 mg CsA; healthy volunteers; NCA
Description: The study was a single center, open-labeled, two-period, fixed-sequence clinical trial. […] Water intake was allowed 2 h after administration of the drug. All participants were given a standardized meal 4 h after dosing. […] Blood samples were withdrawn using vacuum tubes containing EDTA-K2 and immediately transferred to labeled tubes. The samples were stored at −80°C for subsequent analysis. […] Processing of the whole blood samples involved a two-step protein precipitation. Fifty microliters of zinc sulfate (10 mM) were added to 50 μl of a sample. […] After centrifugation, an aliquot (2 μl) of the supernatant was then injected onto an ultra high-performance liquid chromatography coupled with tandem mass spectrometry (UHPLC–MS/MS) device for analysis. UHPLC–MS/MS was performed using an ExionLC™ analytical UHPLC system (AB Sciex, MA, USA), coupled with a Qtrap 4,500 mass spectrometer (AB Sciex, Framingham, MA, USA), equipped with the Turbo lonSpray interface. […] The protonated analyte ions were detected in positive ionization and multiple reaction monitoring modes. […] Calibration curves were linear over the concentration range of 10–3,000 ng/ml. […] Exploratory statistical comparisons of pharmacokinetic parameters between male and female subjects were performed by the t-test for independent data. […]

P-gp = conditions: rats; after multiple oral doses of BG; ref Tian et al., 2019; cited from earlier work
[7] = rats, cited from earlier work
[8] = multiple oral administrations of BG 80 mg/kg, ref Tian et al., 2019
[9] = single dose of BG 136.6 mg/kg, ref Lai et al., 2004

## O=c1cc(-c2ccccc2)oc2cc(O)c(O)c(O)c12 [B, baicalein]
Caco2 cell system
  Papp: 9e-06 cm/s
[1]; B single doses to healthy volunteers, ref Li et al., 2014
  Exposure to BG relative to exposure to B: more than 10 fold
[1]; after oral administration of 100 mg B, healthy volunteers, ref Li et al., 2014
  AUC of BG: 580 ng·h/mL
[1]; oral B, ref Li et al., 2014
  Tmax for both BG and B: about 1 h
CYP3A4
  Ki: 2300 nM

## CC(=O)N1CCN(c2ccc(OCC3COC(Cn4ccnc4)(c4ccc(Cl)cc4Cl)O3)cc2)CC1 (centres unmarked) [ketoconazole]
[2]
  Elevation of CsA concentrations by concomitant administration: several-fold

## O=C(O)[C@H]1O[C@@H](Oc2cc3oc(-c4ccccc4)cc(=O)c3c(O)c2O)[C@H](O)[C@@H](O)[C@@H]1O [BG, baicalein 7-O-glucuronide]
[3]
  Effect of factor BG co-treatment on popPK parameters of CsA (except Ka and Q): did not affect the respective pharmacokinetic parameters of CsA to a clinically relevant extent
[4]
  Decrease of the clearance of midazolam: up to 43%
[5]; human plasma, ref Tang et al., 2006
  Bound to proteins: 86–92%
[5]; in water, ref Wu et al., 2011
  Solubility: 0.057 mg/mL (≈ 128 µM)
[5]; ref Noh et al., 2016
  Elimination half-life: 6.36 ± 5.85 h
[5]; ref Wu et al., 2014
  Oral bioavailability: 2.2%
[6]
  Effect of BG co-administration on the exposure of CsA: no clinically relevant effect
Caco2 cell system
  Papp: 0.275 ± 1.14 × 10^−6 cm/s
[1]; after oral administration of 750 mg BG, healthy subjects, ref Wu et al., 2005
  AUC of BG: 613 ng·h/mL
[1]; oral BG, ref Wu et al., 2005
  Tmax: 7.4 h
P-gp
  Expression of P-gp in the intestine: increased
  Expression of P-gp in the liver: not changed
[7]; multiple intravenous doses of BG, ref Tian et al., 2019
  Effect on the exposure of CsA: did not affect the exposure of CsA
[7]; [8]
  Decrease of AUC0-∞ of CsA: 25%
  Decrease of Cmax of CsA: 38%
[7]; oral administration of BG, ref Tian et al., 2019
  Effect on Cmax and AUC0-∞ of CsA: significantly decreased
[7]; ref Lai et al., 2004
  Effect on exposure to CsA: increased exposure to oral CsA
[7]; [9]
  Elevation of AUC of CsA compared with CsA alone: ~6 times
  Elevation of Cmax of CsA compared with CsA alone: about 4 times
[7]; single intravenous dose and multiple doses of BG, ref Tian et al., 2019
  Effect on the pharmacokinetics of CsA: had no effect
